Patent publication US20220324835A1 (Nurix Therapeutics, Inc., priority 2018, published 2022)

What was measured:
[1] = molecular target: Cbl-b (Homo sapiens, UniProt Q13191); test: Cbl-b inhibition assay (Cbl-b activity assay, FRET, Biological Example 1; 100 mM NaCl, 60 nM Src kinase); format: biochemical; settings: upper bound stated in text lists; read-out: IC50 values in the Cbl-b inhibition assay of Biological Example 1
Summary of the method: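 N-terminally biotinylated Avi-tagged Cbl-b was mixed with Src kinase, UbcH5B covalently conjugated to Bodipy-fluorescein ubiquitin, and streptavidin-terbium. Src phosphorylation lets Cbl-b bind UbcH5B-Ub, giving terbium-fluorescein FRET; inhibition is read as loss of FRET signal.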

[2] = tested on: T-cell; test: IL-2 secretion from T-cells stimulated with anti-CD3 antibody alone (Biological Example 2); format: cell-based, human; settings: T-cell, fold change over baseline, primary human total T-cells, read-out: IL-2 secretion Anti-CD3 stimulation; for fold induction at 1 µM: 1 μM Cbl-b inhibitor; for fold induction at 8 µM: 8 μM Cbl-b inhibitor
[3] = molecular target: Cbl-b (residues 36-427) (Homo sapiens, UniProt Q13191); test: Cbl-b binding assay (SPR, Biacore T200); settings: 20° C., 1:1 binding model
Summary of the method: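 Steps: capture protein on NeutrAvidin surface; inject compound dilutions (8 or 10 points from 100 or 50 μM) 50 s; allow 90-180 s dissociation; regenerate 20 s with 0.3 M NaCl. Runs at 20° C in HEPES pH 7.5/100 mM NaCl/2% DMSO; 1:1 fitting.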

Chain of Cbl-b (residues 36-427) (Q13191 36-427): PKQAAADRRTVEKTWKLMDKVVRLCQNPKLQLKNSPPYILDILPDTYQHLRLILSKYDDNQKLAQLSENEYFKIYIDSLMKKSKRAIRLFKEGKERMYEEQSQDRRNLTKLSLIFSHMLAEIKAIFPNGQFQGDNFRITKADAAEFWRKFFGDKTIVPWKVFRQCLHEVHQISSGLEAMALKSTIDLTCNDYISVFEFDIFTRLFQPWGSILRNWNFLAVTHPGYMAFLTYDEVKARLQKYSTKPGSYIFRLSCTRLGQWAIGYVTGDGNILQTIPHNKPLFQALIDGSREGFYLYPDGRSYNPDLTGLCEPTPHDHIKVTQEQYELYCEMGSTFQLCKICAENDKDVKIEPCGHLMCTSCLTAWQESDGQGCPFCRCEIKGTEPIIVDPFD
Chain of Cbl-b (Q13191 36-427): as above

SMILES | IC50 [1] | fold induction at 1 µM [2] | fold induction at 8 µM [2] | Kd [3]
C[C@H](Cc1nncn1C)c1cccc(NC(=O)c2cc(C(=O)N3C[C@@H](O)C[C@H]3C)ccn2)c1 [Compound 224, 4-((2R,4S)-4-hydroxy-2-methylpyrrolidine-1-carbonyl)-N-(3-((R)-1-(4-methyl-4H-1,2,4-triazol-3-yl)propan-2-yl)phenyl)picolinamide] | ≤ 0.5 µM | 0.101 to 0.15 | 0.101 to 0.15 | 0.301 to 1 µM
C[C@H](Cc1nnc[nH]1)c1cccc(N2Cc3c(cccc3C(F)(F)F)C2=O)c1 [Compound 262, (R)-2-(3-(1-(4H-1,2,4-triazol-3-yl)propan-2-yl)phenyl)-4-(trifluoromethyl)isoindolin-1-one] | ≤ 0.5 µM | < 0.05 | < 0.05 | 0.301 to 1 µM
C[C@H](Cc1nncn1C)c1cccc(NC(=O)c2cc(C(=O)N3CC(O)C(F)(F)C3)ccn2)c1 (stereo partly drawn) [Compound 243, 4-(3,3-difluoro-4-hydroxypyrrolidine-1-carbonyl)-N-[3-[(2R)-1-(4-methyl-4H-1,2,4-triazol-3-yl)propan-2-yl]phenyl]pyridine-2-carboxamide] | ≤ 0.5 µM | > 0.201 | > 0.201 | > 10 µM
C[C@H](Sc1nncn1C)c1cccc(NC(=O)c2cc3c(Cl)cccc3[nH]2)c1 [Compound 78, 4-chloro-A-[3-[(LS)-1-[(4-methyl-1,2,4-triazol-3-yl)sulfanyl]ethyl]phenyl]-1H-indole-2-carboxamide] | ≤ 0.5 µM | < 0.05 | > 0.201 | 0.1 to 0.3 µM
C[C@H](Cc1nncn1C)c1cccc(NC(=O)c2cc(O[C@H]3CC[C@@H](O)C3)ccn2)c1 [Compound 206, 4-((1S,3R)-3-hydroxycyclopentyloxy)-N-(3-((R)-1-(4-methyl-4H-1,2,4-triazol-3-yl)propan-2-yl)phenyl)picolinamide] | ≤ 1 µM | < 0.05 | 0.051 to 0.1 | 0.301 to 1 µM
Cn1cnnc1CC(C)(F)c1cccc(N2Cc3c(cccc3C(F)(F)F)C2=O)c1 (racemic) [Compound 298, 2-(3-(2-fluoro-1-(4-methyl-4H-1,2,4-triazol-3-yl)propan-2-yl)phenyl)-4-(trifluoromethyl)isoindolin-1-one] | ≤ 0.5 µM | 0.051 to 0.1 | 0.101 to 0.15 | < 0.1 µM
COc1nc(C(=O)Nc2cccc([C@H](C)Sc3nncn3C)c2)cc2ccccc12 [Compound 62, (S)-1-methoxy-N-(3-(1-((4-methyl-4H-1,2,4-triazol-3-yl)thio)ethyl)phenyl)isoquinoline-3-carboxamide] | ≤ 0.5 µM | < 0.05 | 0.051 to 0.1 | 0.301 to 1 µM
Cc1ccc(C(=O)Nc2cccc([C@H](C)Sc3nncn3C)c2)nc1C(F)(F)F [Compound 61, (S)-5-methyl-N-(3-(1-((4-methyl-4H-1,2,4-triazol-3-yl)thio)ethyl)phenyl)-6-(trifluoromethyl)picolinamide] | ≤ 0.5 µM | < 0.05 | < 0.05 | 0.1 to 0.3 µM
C[C@H](Sc1nncn1C)c1cccc(NC(=O)c2cc(C(C)(C)O)c(Cl)cn2)c1 [Compound 55, (S)-5-chloro-4-(2-hydroxypropan-2-yl)-N-(3-(1-((4-methyl-4H-1,2,4-triazol-3-yl)thio)ethyl)phenyl)picolinamide] | ≤ 1 µM | < 0.05 | < 0.05 | 1 to 3 µM
CC(Sc1nncn1C)c1cc(F)cc(N2Cc3c(cccc3C(F)(F)F)C2=O)c1 [Compound 168, 2-[3-fluoro-5-[(1R)-1-[(4-methyl-1,2,4-triazol-3-yl)sulfanyl]ethyl]phenyl]-4-(trifluoromethyl)isoindolin-1-one] | ≤ 0.5 µM | < 0.05 | 0.051 to 0.1 | 1 to 3 µM
Cn1cnnc1C(F)(F)C(C)(F)c1cccc(N2Cc3c(cccc3C(F)(F)F)C2=O)c1 (racemic) [Compound 296, 2-(3-(1,1,2-trifluoro-1-(4-methyl-4H-1,2,4-triazol-3-yl)propan-2-yl)phenyl)-4-(trifluoromethyl)isoindolin-1-one] | ≤ 1 µM | > 0.201 | > 0.201 | 3 to 10 µM
C[C@H](Sc1nncn1C)c1cccc(NC(=O)c2cc(Cl)cc(C(F)(F)F)n2)c1 [Compound 68, (S)-4-chloro-N-(3-(1-((4-methyl-4H-1,2,4-triazol-3-yl)thio)ethyl)phenyl)-6-(trifluoromethyl)picolinamide] | ≤ 0.5 µM | < 0.05 | 0.051 to 0.1 | 0.301 to 1 µM
Cc1ccc(C(=O)Nc2cccc([C@H](C)Sc3nncn3C)c2)nc1C [Compound 35, (S)-5,6-Dimethyl-N-(3-(1-((4-methyl-4H-1,2,4-triazol-3-yl)thio)ethyl)phenyl)picolinamide] | ≤ 1 µM | < 0.05 | > 0.201 | 3 to 10 µM
Cn1cnnc1[C@@H]1CC[C@@H]1c1cccc(N2Cc3c(cccc3C(F)(F)F)C2=O)c1 [Compound 283b, 2-(3-((1S,2R)-2-(4-methyl-4H-1,2,4-triazol-3-yl)cyclobutyl)phenyl)-4-(trifluoromethyl)isoindolin-1-one] | ≤ 0.5 µM | 0.101 to 0.15 | > 0.201 | 0.301 to 1 µM
C[C@H](Cc1nncn1C)c1cccc(NC(=O)c2cc(S(N)(=O)=O)cc(C(F)(F)F)n2)c1 [Compound 200, (R)-N-(3-(1-(4-methyl-4H-1,2,4-triazol-3-yl)propan-2-yl)phenyl)-4-sulfamoyl-6-(trifluoromethyl)picolinamide] | ≤ 0.5 µM | < 0.05 | 0.051 to 0.1 | 0.301 to 1 µM
C[C@H](Sc1nncn1C)c1cccc(NC(=O)c2ccnc(C(F)(F)F)n2)c1 [Compound 75, N-[3-[(1S)-1-[(4-methyl-1,2,4-triazol-3-yl)sulfanyl]ethyl]phenyl]-2-(trifluoromethyl)pyrimidine-4-carboxamide] | ≤ 0.5 µM | < 0.05 | 0.051 to 0.1 | 0.301 to 1 µM
CC(C)c1cccc(C(=O)Nc2cccc([C@H](C)Sc3nncn3C)c2)n1 [Compound 33, (S)-6-Isopropyl-N-(3-(1-((4-methyl-4H-1,2,4-triazol-3-yl)thio)ethyl)phenyl)picolinamide] | ≤ 0.5 µM | < 0.05 | < 0.05 | 0.301 to 1 µM
C[C@H](Sc1nncn1C)c1ccnc(NC(=O)c2cc(Cl)cc(C(F)(F)F)n2)c1 [Compound 105, (S)-4-chloro-N-(4-(1-((4-methyl-4H-1,2,4-triazol-3-yl)thio)ethyl)pyridin-2-yl)-6-(trifluoromethyl)picolinamide] | ≤ 1 µM | < 0.05 | < 0.05 | 1 to 3 µM
C[C@H](Sc1nncn1C)c1cccc(NC(=O)c2cc(C(=O)N3C[C@H](O)C[C@@H]3C)ccn2)c1 [Compound 151, 4-((2S,4R)-4-hydroxy-2-methylpyrrolidine-1-carbonyl)-N-(3-((S)-1-((4-methyl-4H-1,2,4-triazol-3-yl)thio)ethyl)phenyl)picolinamide] | ≤ 1 µM | < 0.05 | < 0.05 | 1 to 3 µM
Cc1ccc(C(=O)Nc2cc([C@H](C)Sc3nncn3C)ccn2)nc1C1CC1 [Compound 113, (S)-6-cyclopropyl-5-methyl-N-(4-(1-((4-methyl-4H-1,2,4-triazol-3-yl)thio)ethyl)pyridin-2-yl)picolinamide] | ≤ 1 µM | < 0.05 | < 0.05 | 1 to 3 µM
C[C@H](Cc1nncn1C)c1cccc(N2Cc3c(Br)cccc3C2=O)c1 [Compound 256, (R)-4-bromo-2-(3-(1-(4-methyl-4H-1,2,4-triazol-3-yl)propan-2-yl)phenyl)isoindolin-1-one] | ≤ 0.5 µM | > 0.201 | > 0.201 | 0.1 to 0.3 µM
Cc1cccc2nc(C(=O)Nc3cccc([C@H](C)Sc4nncn4C)c3)ccc12 [Compound 48, 5-Methyl-N-[3-[(1S)-1-[(4-methyl-4H-1,2,4-triazol-3-yl)sulfanyl]ethyl]phenyl]quinoline-2-carboxamide] | ≤ 0.5 µM | < 0.05 | 0.101 to 0.15 | 1 to 3 µM
C[C@H](Cc1nncn1C)c1cccc(NC(=O)c2cc(C(C)(C)O)c(Cl)cn2)c1 [Compound 186, (R)-5-chloro-4-(2-hydroxypropan-2-yl)-N-(3-(1-(4-methyl-4H-1,2,4-triazol-3-yl)propan-2-yl)phenyl)picolinamide] | ≤ 0.5 µM | 0.051 to 0.1 | 0.101 to 0.15 | 0.301 to 1 µM
C[C@H](Cc1nncn1C)c1ccnc(NC(=O)c2cccc(C(F)(F)F)n2)c1 [Compound 302, (R)-N-(4-(1-(4-methyl-4H-1,2,4-triazol-3-yl)propan-2-yl)pyridin-2-yl)-6-(trifluoromethyl)picolinamide] | ≤ 1 µM | < 0.05 | 0.051 to 0.1 | 1 to 3 µM
